The results in this text go back to patent US20040254213A1, “Use of bicyclo compounds for treating alzheimer's disease” (priority 2001, published 2004).

SMILES strings stand for the structures.

A word on the melting point: it is the temperature of the solid-liquid transition.

`CC(C)CN1CC2(Cc3ccccc3)CC(=O)CC(C(O)Cc3ccccc3)(C1)C2O` (racemic) [Compound 16, 5(RS)-methylphenyl-9(RS)-hydroxy-1(RS)-((1′-hydroxy)-2′-phenyl)-ethyl-3-(2″-methyl)propyl-3-azabicyclo[3.3.1] nonan-7-one] displayed a melting point of 138 to 141 °C.

Take `O=C1CC2(Cc3ccccc3)CN(Cc3ccccc3)CC([C@@H](O)Cc3ccccc3)(C1)C2O` (mixture of isomers) [Compound 18, 5(RS)-methylpheny-9(RS)-hydroxy-1(RS)-((1′-hydroxy)-2′-phenyl)-ethyl-3-benzyl-3-azabicyclo[3.3.1]nonan-7-one]: the melting point lay in the range of 145.5 to 147 °C.

With `CC(C)CN1CC2(Cc3ccccc3)CC(=O)CC([C@@H](O)Cc3ccccc3N)(C1)C2O` (mixture of isomers) [Compound 20], the melting point lay within 164 to 165 °C.
